Patent publication US20230279018A1, “AP[…] INHIBITION” (priority 2020, published 2023)
Like-named read-outs stand apart in the source and are kept apart here.

Experiments:
PfcFRS = target: T1, PfcFRS (Plasmodium falciparum, UniProt Q8I246); assay: malachite green-based aminoacylation assay, PfcFRS; format: biochemical
T1 sequence (Q8I246 1-575): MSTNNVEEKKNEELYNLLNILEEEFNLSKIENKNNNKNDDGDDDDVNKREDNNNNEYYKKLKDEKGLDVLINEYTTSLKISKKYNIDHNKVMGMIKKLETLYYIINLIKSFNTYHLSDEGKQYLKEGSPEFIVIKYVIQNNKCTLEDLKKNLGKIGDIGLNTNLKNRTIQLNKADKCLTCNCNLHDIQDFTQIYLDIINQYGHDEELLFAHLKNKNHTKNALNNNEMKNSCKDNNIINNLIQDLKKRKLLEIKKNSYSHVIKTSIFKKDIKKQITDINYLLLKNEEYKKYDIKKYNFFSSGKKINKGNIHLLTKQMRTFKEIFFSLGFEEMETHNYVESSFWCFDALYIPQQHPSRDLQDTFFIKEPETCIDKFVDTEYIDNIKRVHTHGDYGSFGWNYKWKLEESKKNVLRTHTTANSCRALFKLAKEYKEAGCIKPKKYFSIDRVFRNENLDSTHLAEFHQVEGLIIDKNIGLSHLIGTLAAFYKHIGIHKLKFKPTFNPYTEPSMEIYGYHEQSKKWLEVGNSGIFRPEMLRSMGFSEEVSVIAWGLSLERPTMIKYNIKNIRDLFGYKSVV
T1 sequence (Q8IIW2 1-623 partner): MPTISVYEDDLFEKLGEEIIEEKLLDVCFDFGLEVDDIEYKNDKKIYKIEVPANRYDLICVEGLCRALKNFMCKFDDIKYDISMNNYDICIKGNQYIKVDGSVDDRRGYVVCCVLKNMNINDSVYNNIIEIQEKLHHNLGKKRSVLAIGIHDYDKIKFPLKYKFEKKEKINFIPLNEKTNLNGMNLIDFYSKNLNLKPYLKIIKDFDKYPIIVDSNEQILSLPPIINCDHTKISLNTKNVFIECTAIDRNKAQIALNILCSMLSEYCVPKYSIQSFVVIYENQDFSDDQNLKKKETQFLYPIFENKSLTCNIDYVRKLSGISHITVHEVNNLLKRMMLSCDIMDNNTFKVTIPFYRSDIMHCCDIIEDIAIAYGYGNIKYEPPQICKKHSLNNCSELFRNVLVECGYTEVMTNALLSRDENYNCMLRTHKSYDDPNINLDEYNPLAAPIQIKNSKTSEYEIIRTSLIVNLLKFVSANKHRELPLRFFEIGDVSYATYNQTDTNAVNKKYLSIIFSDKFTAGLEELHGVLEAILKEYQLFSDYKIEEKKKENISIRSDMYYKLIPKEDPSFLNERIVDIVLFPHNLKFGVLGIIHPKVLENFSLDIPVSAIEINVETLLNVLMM
Excerpt: (§1) EC50 assays were run as described in Int'l Pub Nos. WO 2015070204, WO 2018175385, and Kato, N, et al. Nature 538 (2016): 344-349, which are hereby incorporated by reference in its entirety. The inhibition of the aminoacylation activity of Pf (Plasmodium falciparum), Pv (Plasmodium vivax), Hs (Human) and Pf-Mut (L550V) cFRS enzymes by Compound 1 are illustrated in FIG. 1.
The enzymatic activity of purified heterodimeric PfcFRS using malachite green-based aminoacylation assays with substrates L-Phe and ATP was also measured as described in Cestari, I. et al., J Biomol. Screen. 18 (2013): 490-497 and Kato, N, et al. Nature 538 (2016): 344-349, which are hereby incorporated by reference in its entirety. […] Enzymatic reactions (50 μl total volume) were performed in clear, flat-bottomed, 96-well plates (Costar 96-well standard microplates). The reaction mixture was incubated for 2 h at 37° C. The reaction was stopped by adding 12.5 μl of malachite green solution to the reaction mixture and levels of inorganic phosphate (Pi) were detected after incubation of 5 min at room temperature. Absorbance was the measured at 620 nm using a Spectramax M2 (Molecular Devices). Reactions without FRS enzyme were performed as background controls, values of which were subtracted from the reactions with enzyme. Compound 1 was added to the aminoacylation assay reaction buffer in varying concentrations ranging from 0.1 nM to 10,000 nM.
Data sets were then globally fitted to the appropriate model (with equations (1) and (2) used for competitive and mixed inhibition respectively).
where v is the reaction rate, Km is the Michaelis-Menten constant, Vmax is the maximum reaction velocity, Ki is the inhibitor constant, [I] is the concentration of inhibitor (Compound 1) and [S] is the concentration of substrate.
The data is shown for three replicates as the mean±SD in FIGS. 2A and 2B. […] Specifically, enzyme activity was evaluated at a fixed saturating concentration of one substrate (L-Phe or ATP) and varying concentrations the other at different inhibitor concentrations. The experimental data were fit to the Michaelis-Menten equation that produced Lineweaver-Burk plots as described above. […] The mode of inhibition was then analyzed using ATP as the variable-concentration substrate (FIG. 2B). The data were then fit to the modified high-substrate inhibition Michaelis-Menten equation that led to the corresponding double-reciprocal plot and its inhibition profile.

Pf Dd2 = Pf Dd2 growth inhibition assay; format: cell-based, Plasmodium falciparum
Excerpt: as §1

SMILES: COC[C@@H]1[C@H](c2ccc(C#Cc3ccccc3)cc2)[C@@H]2CN(C(=O)Nc3ccc(OC4CC4)cc3)C[C@@H](O)[C@@H](O)CN12 [Compound 1, (3S,4R,8R,9R,10S)—N-(4-cyclopropoxyphenyl)-3,4-dihydroxy-10-(methoxymethyl)-9-(4-(phenylethynyl)phenyl)-1,6-diazabicyclo[6.2.0]decane-6-carboxamide]
- mode of inhibition with respect to ATP (PfcFRS; Lineweaver-Burk analysis): non-competitive inhibitor
- mode of inhibition with respect to L-Phe (PfcFRS; Lineweaver-Burk analysis): competitive inhibitor
- IC50 (PfcFRS; aminoacylation activity, read-out: cFRS IC50, Pf): 12 nM
- Ki (PfcFRS; global competitive inhibition model, saturating ATP, varying L-Phe, read-out: Ki with respect to L-Phe): 6 ± 2 nM
- Ki (PfcFRS; non-competitive inhibition model, saturating L-Phe, varying ATP, read-out: Ki with respect to ATP): 10 ± 5 nM
- EC50 (Pf Dd2; Plasmodium falciparum, DD2, read-out: PfDd2 growth inhibition EC50): < 1 nM
- efficacy by EC50 Pf Dd2 growth inhibition relative to comparator (Pf Dd2; versus (3S,4R,8R,9S,10S)-10-((dimethylamino)methyl) analogue): three fold better efficacy
